Laboratory results from patent US10239869B2, “Sulfonamide compounds as voltage-gated sodium channel modulators” (LUPIN LIMITED, priority 2015, dated 2019).
Read-outs that look alike come from different tables or passages of the source.

How the values were obtained:
Nav 1.7 = Nav 1.7 (Homo sapiens (Human), UniProt Q15858); experiment: Inhibition of sodium channels, Red Membrane Potential Dye FLIPR assay, veratridine depolarization; format: cell-based; details: HEK-293 cells overexpressing the channel; for IC50: read-out: Nav1.7 IC50
Nav 1.5 = Nav 1.5 (Homo sapiens (Human), UniProt Q14524); experiment: as above; format: cell-based; details: HEK-293 cells overexpressing the channel; for inhibition at 10 µM: HEK-293 cells overexpressing Nav 1.5
[1] = read-out: Nav1.5 IC50 (bound given in μM)

Sequence of Nav 1.5 (Q14524 whole entry): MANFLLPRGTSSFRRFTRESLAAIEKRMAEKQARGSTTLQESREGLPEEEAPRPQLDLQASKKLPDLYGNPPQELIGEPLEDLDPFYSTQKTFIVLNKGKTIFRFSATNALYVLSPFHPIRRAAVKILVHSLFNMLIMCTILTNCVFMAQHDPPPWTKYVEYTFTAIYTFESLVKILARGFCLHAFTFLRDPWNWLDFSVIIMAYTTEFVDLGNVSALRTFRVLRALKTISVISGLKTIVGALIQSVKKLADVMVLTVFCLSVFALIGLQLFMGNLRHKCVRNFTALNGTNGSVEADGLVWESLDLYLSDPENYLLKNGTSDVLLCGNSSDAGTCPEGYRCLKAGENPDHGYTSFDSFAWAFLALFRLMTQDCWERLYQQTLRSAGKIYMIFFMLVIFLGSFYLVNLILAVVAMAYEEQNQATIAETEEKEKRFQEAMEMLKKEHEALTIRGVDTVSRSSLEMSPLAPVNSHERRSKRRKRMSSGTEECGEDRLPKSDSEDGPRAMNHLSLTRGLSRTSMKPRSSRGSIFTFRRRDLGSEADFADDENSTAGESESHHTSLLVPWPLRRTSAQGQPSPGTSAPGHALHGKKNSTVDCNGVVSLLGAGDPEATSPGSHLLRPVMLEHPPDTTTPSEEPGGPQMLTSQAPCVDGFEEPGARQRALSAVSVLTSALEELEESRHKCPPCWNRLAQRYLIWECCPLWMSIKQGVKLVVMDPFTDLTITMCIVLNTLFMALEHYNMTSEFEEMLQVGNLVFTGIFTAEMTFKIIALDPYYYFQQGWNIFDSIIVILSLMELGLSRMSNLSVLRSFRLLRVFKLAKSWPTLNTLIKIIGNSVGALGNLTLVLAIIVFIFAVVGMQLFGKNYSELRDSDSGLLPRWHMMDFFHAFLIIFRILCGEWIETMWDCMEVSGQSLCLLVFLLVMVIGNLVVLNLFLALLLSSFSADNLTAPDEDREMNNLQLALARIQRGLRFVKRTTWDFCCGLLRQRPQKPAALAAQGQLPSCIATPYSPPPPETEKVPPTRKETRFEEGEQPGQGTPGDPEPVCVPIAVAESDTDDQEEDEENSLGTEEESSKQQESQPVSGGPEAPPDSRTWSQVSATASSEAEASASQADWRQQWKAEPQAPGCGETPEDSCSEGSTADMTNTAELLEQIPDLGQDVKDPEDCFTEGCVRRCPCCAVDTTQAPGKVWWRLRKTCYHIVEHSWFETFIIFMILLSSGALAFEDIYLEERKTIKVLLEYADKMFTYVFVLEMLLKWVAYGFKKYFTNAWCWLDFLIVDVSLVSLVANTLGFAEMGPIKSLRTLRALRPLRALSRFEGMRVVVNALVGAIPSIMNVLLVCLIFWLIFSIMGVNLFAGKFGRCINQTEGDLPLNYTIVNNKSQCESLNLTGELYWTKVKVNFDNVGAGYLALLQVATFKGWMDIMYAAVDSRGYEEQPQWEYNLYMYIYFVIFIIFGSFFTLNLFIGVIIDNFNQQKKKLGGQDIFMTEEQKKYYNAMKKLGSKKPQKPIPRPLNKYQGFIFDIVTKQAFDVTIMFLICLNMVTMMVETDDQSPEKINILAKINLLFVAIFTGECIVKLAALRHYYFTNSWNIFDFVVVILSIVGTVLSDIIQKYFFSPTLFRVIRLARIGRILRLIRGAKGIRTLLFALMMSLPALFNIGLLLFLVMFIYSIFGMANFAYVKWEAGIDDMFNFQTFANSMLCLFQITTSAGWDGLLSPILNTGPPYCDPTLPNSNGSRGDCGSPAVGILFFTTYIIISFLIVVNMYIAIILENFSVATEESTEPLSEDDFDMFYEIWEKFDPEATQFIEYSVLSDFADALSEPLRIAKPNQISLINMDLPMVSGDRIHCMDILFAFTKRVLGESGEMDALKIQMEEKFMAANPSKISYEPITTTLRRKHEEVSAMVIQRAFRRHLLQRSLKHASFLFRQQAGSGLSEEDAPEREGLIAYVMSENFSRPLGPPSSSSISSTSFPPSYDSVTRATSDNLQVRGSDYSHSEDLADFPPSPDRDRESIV
Sequence of Nav 1.7 (Q15858 whole entry): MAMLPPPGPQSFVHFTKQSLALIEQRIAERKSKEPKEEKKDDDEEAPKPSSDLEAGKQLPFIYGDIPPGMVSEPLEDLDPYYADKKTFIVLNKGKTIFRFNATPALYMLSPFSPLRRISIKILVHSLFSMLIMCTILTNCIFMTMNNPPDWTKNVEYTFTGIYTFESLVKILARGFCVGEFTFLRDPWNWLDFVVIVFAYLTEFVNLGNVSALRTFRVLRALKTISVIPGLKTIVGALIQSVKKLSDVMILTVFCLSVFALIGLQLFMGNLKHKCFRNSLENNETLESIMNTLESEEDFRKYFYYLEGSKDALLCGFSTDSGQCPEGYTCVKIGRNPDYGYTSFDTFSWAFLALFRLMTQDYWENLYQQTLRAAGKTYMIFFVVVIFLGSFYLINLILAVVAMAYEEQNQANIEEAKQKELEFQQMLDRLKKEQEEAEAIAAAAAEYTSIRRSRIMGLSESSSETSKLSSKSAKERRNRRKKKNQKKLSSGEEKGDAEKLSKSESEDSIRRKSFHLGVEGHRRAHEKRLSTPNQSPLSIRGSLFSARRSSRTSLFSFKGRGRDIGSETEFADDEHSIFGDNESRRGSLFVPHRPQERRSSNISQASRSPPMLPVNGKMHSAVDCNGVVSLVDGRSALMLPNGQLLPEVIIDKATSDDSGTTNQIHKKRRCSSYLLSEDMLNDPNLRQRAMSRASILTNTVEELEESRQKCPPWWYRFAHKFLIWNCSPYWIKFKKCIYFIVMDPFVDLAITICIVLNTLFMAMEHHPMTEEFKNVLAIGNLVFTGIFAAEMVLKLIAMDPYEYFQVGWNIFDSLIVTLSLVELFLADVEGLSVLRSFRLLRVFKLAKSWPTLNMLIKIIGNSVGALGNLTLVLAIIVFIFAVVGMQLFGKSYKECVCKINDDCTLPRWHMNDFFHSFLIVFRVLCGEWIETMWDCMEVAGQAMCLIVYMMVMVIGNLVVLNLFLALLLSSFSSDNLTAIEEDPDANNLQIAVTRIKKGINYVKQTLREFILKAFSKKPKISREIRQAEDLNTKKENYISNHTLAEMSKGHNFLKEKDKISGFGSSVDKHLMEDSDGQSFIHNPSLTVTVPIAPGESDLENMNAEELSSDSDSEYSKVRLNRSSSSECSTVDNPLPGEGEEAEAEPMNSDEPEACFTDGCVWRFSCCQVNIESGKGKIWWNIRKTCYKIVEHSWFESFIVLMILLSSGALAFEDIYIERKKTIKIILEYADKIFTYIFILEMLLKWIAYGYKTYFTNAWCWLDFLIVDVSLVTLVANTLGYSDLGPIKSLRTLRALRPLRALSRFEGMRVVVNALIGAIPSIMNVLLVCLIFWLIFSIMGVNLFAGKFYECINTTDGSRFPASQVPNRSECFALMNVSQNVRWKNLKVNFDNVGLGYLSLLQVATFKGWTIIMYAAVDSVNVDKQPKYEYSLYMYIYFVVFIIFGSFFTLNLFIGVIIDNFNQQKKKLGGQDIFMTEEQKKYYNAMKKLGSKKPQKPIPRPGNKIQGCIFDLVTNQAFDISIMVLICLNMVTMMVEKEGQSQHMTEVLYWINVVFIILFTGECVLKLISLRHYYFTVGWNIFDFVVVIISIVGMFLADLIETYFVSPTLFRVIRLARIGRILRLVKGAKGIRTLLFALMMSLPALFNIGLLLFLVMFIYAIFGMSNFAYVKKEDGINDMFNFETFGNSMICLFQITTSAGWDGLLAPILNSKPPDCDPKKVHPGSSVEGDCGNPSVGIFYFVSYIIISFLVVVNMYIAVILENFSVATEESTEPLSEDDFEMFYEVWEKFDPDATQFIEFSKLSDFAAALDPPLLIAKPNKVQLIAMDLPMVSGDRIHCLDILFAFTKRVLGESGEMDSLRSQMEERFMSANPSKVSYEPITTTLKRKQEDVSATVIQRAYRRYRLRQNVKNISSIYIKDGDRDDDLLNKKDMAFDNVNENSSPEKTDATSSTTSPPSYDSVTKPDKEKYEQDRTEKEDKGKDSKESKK

| Structure (SMILES) | IC50 (Nav 1.7) [nM] | IC50 (Nav 1.5; [1]) [µM] | other results |
| --- | --- | --- | --- |
| O=S(=O)(Nc1ncc(F)cn1)c1ccc2c(c1)OCC[C@@H]2c1ccc(C(F)(F)F)cc1CCCF (racemic) [Example 159, (R/S)-4-(2-(3-fluoropropyl)-4-(trifluoromethyl)phenyl)-N-(5-fluoropyrimidin-2-yl)chroman-7-sulfonamide] | 10 | – | IC50 (Nav 1.5; read-out: Nav1.5 IC50): 0.943 µM |
| O=S(=O)(Nc1ncccn1)c1ccc2c(c1)OCCC2c1ccc(C(F)(F)F)cc1O[C@H]1CCOC1 (stereo partly drawn) [Example-179, (R&S)—N-(pyrimidin-2-yl)-4-(2-(((S)-tetrahydrofuran-3-yl)oxy)-4-(trifluoromethyl)phenyl)chroman-7-sulfonamide] | 38 | – | Nav1.5 % inhibition @ 10 μM (Nav 1.5): 64% |
| O=S(=O)(Nc1ccncn1)c1ccc2c(c1)OCC[C@@H]2c1ccc(C(F)(F)F)cc1CCF (racemic) [Example 155, (R/S)-4-(2-(2-fluoroethyl)-4-(trifluoromethyl)phenyl)-N-(pyrimidin-4-yl)chroman-7-sulfonamide] | 4 | > 10 | – |
| Cc1ccnc(NS(=O)(=O)c2ccc3c(c2)OCC[C@H]3c2ccc(C(F)(F)F)cc2-c2ccnn2C)c1 [Example 23, (S&R)-4-(2-(1-methyl-1H-pyrazol-5-yl)-4-(trifluoromethyl)phenyl)-N-(4-methylpyridin-2-yl)chroman-7-sulfonamide] | 3690 | – | Nav1.5 % inhibition @ 10 μM (Nav 1.5): 59% |
| O=S(=O)(Nc1cccnn1)c1ccc2c(c1)OCCC2c1ccc(C(F)(F)F)cc1-n1ccnn1 (stereo not shown) [Example 53, (S&R)-4-(2-(1H-1,2,3-Triazol-1-yl)-4-(trifluoromethyl)phenyl)-N-(pyridazin-3-yl)chromane-7-sulfonamide] | – | – | Nav1.7 inhibition @ 10 μM (Nav 1.7): 70%; Nav1.5 % inhibition @ 10 μM (Nav 1.5): 44% |
| O=S(=O)(Nc1ncccn1)c1ccc2c(c1)OCC[C@@H]2c1ccc(C(F)(F)F)cc1OC1COC1 [Example-217, (R&S)-4-(2-(oxetan-3-yloxy)-4-(trifluoromethyl)phenyl)-N-(pyrimidin-2-yl)chroman-7-sulfonamide] | 152 | – | Nav1.5 % inhibition @ 10 μM (Nav 1.5): 50% |
| COCCCCc1cc(C(F)(F)F)ccc1[C@H]1CCOc2cc(S(=O)(=O)Nc3ccncn3)ccc21 (racemic) [Example 149, (R/S)-4-(2-(4-methoxybutyl)-4-(trifluoromethyl)phenyl)-N-(pyrimidin-4-yl)chroman-7-sulfonamide] | 21 | – | inhibition at 10 µM (Nav 1.5): 58% |
| CCOc1ccc(-c2cc(C(F)(F)F)ccc2[C@H]2CCOc3cc(S(=O)(=O)Nc4ncc(F)cn4)ccc32)cn1 [Example 102, (S&R)-4-(2-(6-ethoxypyridin-3-yl)-4-(trifluoromethyl)phenyl)-N-(5-fluoropyrimidin-2-yl)chroman-7-sulfonamide] | 39 | > 10 | – |
| O=C(O)c1ccc(-c2cc(C(F)(F)F)ccc2[C@H]2CCOc3cc(S(=O)(=O)Nc4cccc(F)n4)ccc32)cc1 (racemic) [Example-192, (R/S)-2′-(7-(N-(6-fluoropyridin-2-yl)sulfamoyl)chroman-4-yl)-5′-(trifluoromethyl)-[1,1′-biphenyl]-4-carboxylic acid] | 8 | > 10 | – |
| COCCCc1cc(C(F)(F)F)ccc1[C@H]1CCOc2cc(S(=O)(=O)Nc3ncc(F)cn3)ccc21 (racemic) [Example 142, (R/S)—N-(5-fluoropyrimidin-2-yl)-4-(2-(3-methoxypropyl)-4-(trifluoromethyl)phenyl)chroman-7-sulfonamide] | 179 | > 10 | – |
| O=S(=O)(Nc1ccncn1)c1ccc2c(c1)OCC[C@@H]2c1ccc(C(F)(F)F)cc1OC1CCOCC1 [Example-173, (R&S)—N-(pyrimidin-4-yl)-4-(2-((tetrahydro-2H-pyran-4-yl)oxy)-4-(trifluoromethyl)phenyl)chroman-7-sulfonamide] | 12 | – | Nav1.5 % inhibition @ 10 μM (Nav 1.5): 63% |
| O=S(=O)(Nc1cccnn1)c1ccc2c(c1)OCC[C@H]2c1ccc(C(F)(F)F)cc1OC1CCOCC1 [Example-174, (R&S)—N-(pyridazin-3-yl)-4-(2-((tetrahydro-2H-pyran-4-yl)oxy)-4-(trifluoromethyl)phenyl)chroman-7-sulfonamide] | 2460 | > 10 | – |
| Cn1nccc1-c1cc(Cl)ccc1[C@@H]1CCOc2cc(S(=O)(=O)Nc3cccc(F)n3)ccc21 [Example 31, (S&R)-4-(4-chloro-2-(1-methyl-1H-pyrazol-5-yl)phenyl)-N-(6-fluoropyridin-2-yl)chroman-7-sulfonamide] | 2050 | > 10 | – |
| CC(C)Oc1ccc(-c2cc(C(F)(F)F)ccc2[C@@H]2CCOc3cc(S(=O)(=O)Nc4ncc(F)cn4)ccc32)cn1 [Example 99, (S&R)—N-(5-fluoropyrimidin-2-yl)-4-(2-(6-isopropoxypyridin-3-yl)-4-(trifluoromethyl)phenyl)chroman-7-sulfonamide] | 1060 | – | Nav1.5 % inhibition @ 10 μM (Nav 1.5): 80% |
| Cn1nccc1-c1cc(Cl)ccc1[C@H]1CCOc2cc(S(=O)(=O)Nc3cccc(F)n3)ccc21 [Example 32, (S&R)-4-(4-chloro-2-(1-methyl-1H-pyrazol-5-yl)phenyl)-N-(6-fluoropyridin-2-yl)chroman-7-sulfonamide] | 151 | > 10 | – |
| O=C1CCCN1c1cc(C(F)(F)F)ccc1[C@H]1CCOc2cc(S(=O)(=O)Nc3ncc(F)cn3)ccc21 [Example 114, (S&R)—N-(5-fluoropyrimidin-2-yl)-4-(2-(2-oxopyrrolidin-1-yl)-4-(trifluoromethyl)phenyl)chroman-7-sulfonamide] | 624 | > 10 | – |
| CS(=O)(=O)CCc1cc(C(F)(F)F)ccc1[C@@H]1CCOc2cc(S(=O)(=O)Nc3ccncn3)ccc21 [Example 87, (S&R)-4-(2-(2-(Methylsulfonyl)ethyl)-4-(trifluoromethyl)phenyl)-N-(pyrimidin-4-yl) chroman-7-sulfonamide] | – | > 10 | Nav1.7 inhibition @ 10 μM (Nav 1.7): 58% |
| O=S(=O)(Nc1cccc(F)n1)c1ccc2c(c1)OCC[C@@H]2c1ccc(C(F)(F)F)cc1-c1nccs1 (racemic) [Example 96, (R/S)—N-(6-fluoropyridin-2-yl)-4-(2-(thiazol-2-yl)-4-(trifluoromethyl)phenyl)chroman-7-sulfonamide] | 8 | – | inhibition at 10 µM (Nav 1.5): 70% |
| O=C1OCCN1c1cc(C(F)(F)F)ccc1[C@H]1CCOc2cc(S(=O)(=O)Nc3ncccn3)ccc21 (racemic) [Example-207, (R/S)-4-(2-(2-oxooxazolidin-3-yl)-4-(trifluoromethyl)phenyl)-N-(pyrimidin-2-yl)chroman-7-sulfonamide] | 49 | > 10 | – |
| O=C1OCCN1c1cc(C(F)(F)F)ccc1[C@H]1CCOc2cc(S(=O)(=O)Nc3cccnn3)ccc21 (racemic) [Example-209, (R/S)-4-(2-(2-oxooxazolidin-3-yl)-4-(trifluoromethyl)phenyl)-N-(pyridazin-3-yl)chroman-7-sulfonamide] | 47 | – | inhibition at 10 µM (Nav 1.5): 28% |
| CC(C)Oc1ccc(-c2cc(C(F)(F)F)ccc2[C@H]2CCOc3cc(S(=O)(=O)Nc4ncc(F)cn4)ccc32)cn1 [Example 100, (S&R)—N-(5-fluoropyrimidin-2-yl)-4-(2-(6-isopropoxypyridin-3-yl)-4-(trifluoromethyl)phenyl)chroman-7-sulfonamide] | 75 | > 10 | – |
| O=C(O)c1ccc(-c2cc(C(F)(F)F)ccc2[C@H]2CCOc3cc(S(=O)(=O)Nc4ncccn4)ccc32)cc1 [Example-188, (S&R)-2′-(7-(N-(pyrimidin-2-yl)sulfamoyl)chroman-4-yl)-5′-(trifluoromethyl)-[1,1′-biphenyl]-4-carboxylic acid] | 67 | > 10 | – |
| CC(C)Oc1cccc(NS(=O)(=O)c2ccc3c(c2)OCC[C@H]3c2ccc(C(F)(F)F)cc2-c2ccnn2C)n1 [Example 25, (S&R)—N-(6-isopropoxypyridin-2-yl)-4-(2-(1-methyl-1H-pyrazol-5-yl)-4-(trifluoromethyl)phenyl)chroman-7-sulfonamide] | 221 | > 10 | – |
| COCCOc1cc(C(F)(F)F)ccc1[C@H]1CCOc2cc(S(=O)(=O)Nc3ccncn3)ccc21 (racemic) [Example 127, (R/S)-4-(2-(2-methoxyethoxy)-4-(trifluoromethyl)phenyl)-N-(pyrimidin-4-yl)chroman-7-sulfonamide] | 4 | – | inhibition at 10 µM (Nav 1.5): 37% |
| COCCc1cc(C(F)(F)F)ccc1[C@H]1CCOc2cc(S(=O)(=O)Nc3cccc(F)n3)ccc21 (racemic) [Example 137, (R/S)—N-(6-fluoropyridin-2-yl)-4-(2-(2-methoxyethyl)-4-(trifluoromethyl)phenyl)chroman-7-sulfonamide] | 12 | – | IC50 (Nav 1.5; read-out: Nav1.5 IC50): 3.64 µM |
| Cc1nc(-c2cc(C(F)(F)F)ccc2[C@H]2CCOc3cc(S(=O)(=O)Nc4ncccn4)ccc32)ccc1F (racemic) [Example-222, (R/S)-4-(2-(5-fluoro-6-methylpyridin-2-yl)-4-(trifluoromethyl)phenyl)-N-(pyrimidin-2-yl)chroman-7-sulfonamide] | 63 | – | inhibition at 10 µM (Nav 1.5): 73% |
| CS(=O)(=O)CCc1cc(C(F)(F)F)ccc1[C@H]1CCOc2cc(S(=O)(=O)Nc3ccncn3)ccc21 [Example 88, (S&R)-4-(2-(2-(Methylsulfonyl)ethyl)-4-(trifluoromethyl)phenyl)-N-(pyrimidin-4-yl) chroman-7-sulfonamide] | 626 | > 10 | – |
| Cc1ccnc(NS(=O)(=O)c2ccc3c(c2)OCC[C@@H]3c2ccc(C(F)(F)F)cc2-c2ccnn2C)c1 [Example 24, (S&R)-4-(2-(1-methyl-1H-pyrazol-5-yl)-4-(trifluoromethyl)phenyl)-N-(4-methylpyridin-2-yl)chroman-7-sulfonamide] | 816 | – | IC50 (Nav 1.5; read-out: Nav1.5 IC50): 3.92 µM |
| COCCCc1cc(C(F)(F)F)ccc1[C@H]1CCOc2cc(S(=O)(=O)Nc3cccc(F)n3)ccc21 (racemic) [Example 145, (R/S)—N-(6-fluoropyridin-2-yl)-4-(2-(3-methoxypropyl)-4-(trifluoromethyl)phenyl)chroman-7-sulfonamide] | 19 | – | IC50 (Nav 1.5; read-out: Nav1.5 IC50): 2.41 µM |
